The record followed here is patent US20190124918A1, “BIOFILM FORMATION INHIBITOR AND BIOFILM FORMATION INHIBITING COMPOSITION” (KAO CORPORATION, priority 2016, published 2019).

This assay relates to biofilm-forming microbe isolated from cooling water taken from a water cooling tower. The experiment in a line: Biofilm inhibition test, quinone-based compound and organic solvent (OD570). Format: cell-based. Conditions: alone or added as test solution in organic solvent, no addition gave 2.831. On the procedure: A biofilm-forming microbe (microbe providing a OD570 value of 0.3 or more in the test for determining the amount of biofilm in the following section 4-3) isolated from cooling water taken from a water cooling tower was cultured in R2A culture medium at 30° C. for 16 hours while shaking. The turbidity (OD600) of the resultant culture solution was measured. The culture solution was diluted with R2A culture medium to prepare a suspension of 10^3 cfu/mL.
The suspension of a test microbe prepared in the above section 4-1) was added in individual wells of a 96 well microplate in an amount of 150 μL. Thereafter, the test solution prepared in the above section 2) was add and culture was initiated.
The 96 well microplate was subjected to stationary culture performed at 30° C. for 48 hours. The culture solution was removed and the resultant microplate was washed with water. Subsequently, each well was stained with 0.1% crystal violet and 200 μL of ethanol was added. The absorbance (OD570) was measured to obtain the amount of biofilm (BF) formed.

With `CC1=CC(=O)C=CC1=O` [Compound a, p-Toluquinone], the OD570 by setting is: (Toluquinone 10 ppm) 0.119; (Toluquinone 20 ppm) 0.083.
